Reference: US20250228865A1, “COMPOUNDS FOR ENHANCING READ THROUGH OF GENES CONTAINING PREMATURE TERMINATION CODONS AND METHODS FOR MAKING AND USING THE SAME” (Sanofi US Services Inc., priority 2022, published 2025)

How the values were obtained:
[1] = test system: recombinant human CFTR carrying the premature stop codon (PTC) mutation R1162X; assay: CFTR-PTC mutant translation readthrough, Nanoluc tagged CFTR luminescence (R1162X cell line); format: cell-based; settings: for CFTR R1162X ACTIVITY Fold 10 μM G-418: fold over 10 μM G-418, in combination with G418; for EC50: in combination with G418, 16HBE cells, read-out: CFTR R1162X ACTIVITY EC50
Method in brief: (§1)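 Readthrough is the 48 h compound-induced luminescence increase scaled to that of maximal G418 (125-250 μM). Compounds run from 50 μM final in 2-fold steps, ±10 μM G418, on 16HBE lines carrying Nanoluc-tagged CFTR G542X (extracellular loop 4 tag) or R1162X (C-terminal tag), with 3 μM VX-809 present.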

[2] = test system: recombinant human CFTR carrying the premature stop codon (PTC) mutation G542X; assay: CFTR-PTC mutant translation readthrough, Nanoluc tagged CFTR luminescence (G542X cell line); format: cell-based; settings: in combination with G418, G542X cell line; for CFTR G542X ACTIVITY Fold 10 μM G-418: fold over 10 μM G-418; for EC50: 16HBE cells
Method in brief: as §1

Compound | EC50 [1] | EC50 [2] | CFTR R1162X ACTIVITY Fold 10 μM G-418 [1] | CFTR G542X ACTIVITY Fold 10 μM G-418 [2]
O=C1CN(c2ncc(OCc3c(Cl)cccc3C(F)(F)F)cn2)C(=O)N1 | 1000 to 10000 nM | 1000 to 10000 nM | A′ (A′ = ≥10X) | A′ (A′ = ≥10X)
OCCC1(O)CCN(c2ncc(OCc3c(Cl)cccc3Cl)cn2)CC1 | < 1000 nM | < 1000 nM | A′ (A′ = ≥10X) | A′ (A′ = ≥10X)
FC(F)(F)c1cccc(Cl)c1COc1cnc(N2CCC3(CCCNC3)C2)nc1 (stereo not drawn) | 1000 to 10000 nM | > 10000 nM | A′ (A′ = ≥10X) | A′ (A′ = ≥10X)
CC(C)C1NC(=O)N(c2ccc(OCc3c(Cl)cccc3C(F)(F)F)cc2)C1=O (stereo not drawn) | 1000 to 10000 nM | < 1000 nM | B′ (B′ = ≥5X to <10X) | A′ (A′ = ≥10X)
O=C1NC2(CCCC2)C(=O)N1c1ccc(OCc2c(Cl)cccc2C(F)(F)F)cc1 | 1000 to 10000 nM | < 1000 nM | B′ (B′ = ≥5X to <10X) | A′ (A′ = ≥10X)
CC1(C)NC(=O)N(c2ccc(OCc3c(Cl)cccc3C(F)(F)F)cc2)C1=O | 1000 to 10000 nM | < 1000 nM | A′ (A′ = ≥10X) | A′ (A′ = ≥10X)
Cc1cccc(C(F)(F)F)c1COc1cnc(N2CCC(O)(CCO)CC2)nc1 | < 1000 nM | < 1000 nM | A′ (A′ = ≥10X) | A′ (A′ = ≥10X)
NC(=O)N1CCN(c2ncc(OCc3c(Cl)cccc3C(F)(F)F)cn2)CC1 | < 1000 nM | < 1000 nM | A′ (A′ = ≥10X) | A′ (A′ = ≥10X)
O=C1NC2(CC2)C(=O)N1c1ccc(OCc2c(Cl)cccc2C(F)(F)F)cc1 | 1000 to 10000 nM | < 1000 nM | A′ (A′ = ≥10X) | A′ (A′ = ≥10X)
NC(=O)N1CC2(C1)CN(c1ncc(OCc3c(Cl)cccc3C(F)(F)F)cn1)C2 | 1000 to 10000 nM | 1000 to 10000 nM | B′ (B′ = ≥5X to <10X) | A′ (A′ = ≥10X)

The next lines start with results.

EC50 [1] | EC50 [2] | Compound | CFTR R1162X ACTIVITY Fold 10 μM G-418 [1] | CFTR G542X ACTIVITY Fold 10 μM G-418 [2]
1000 to 10000 nM | 1000 to 10000 nM | O=C(O)C1CCN(c2ncc(OCc3c(Cl)cccc3C(F)(F)F)cn2)C1 (stereo not drawn) | B′ (B′ = ≥5X to <10X) | A′ (A′ = ≥10X)
> 10000 nM | > 10000 nM | O=C(O)c1ncn(-c2ncc(OCc3c(Cl)cccc3C(F)(F)F)cn2)n1 | – | –
< 1000 nM | < 1000 nM | O=C1CN(c2ccc(OCc3c(Cl)cccc3C(F)(F)F)cn2)C(=O)N1 | A′ (A′ = ≥10X) | A′ (A′ = ≥10X)
> 10000 nM | > 10000 nM | O=C1OC(CO)CN1c1ncc(CCc2c(Cl)cccc2Cl)cn1 (stereo not drawn) | – | –
> 10000 nM | 1000 to 10000 nM | O=C1CNC(=O)N1c1ccc(OCc2c(Cl)cccc2C(F)(F)F)cn1 | – | B′ (B′ = ≥5X to <10X)
> 10000 nM | > 10000 nM | O=C1OC(CO)CN1c1ncc(OC(F)(F)c2c(Cl)cccc2Cl)cn1 (stereo not drawn) | – | –
< 1000 nM | < 1000 nM | Cc1cccc(C(F)(F)F)c1COc1cnc(N2CCC(O)C(F)(F)C2)nc1 (stereo not drawn) | A′ (A′ = ≥10X) | C′ (C′ = <5X)
1000 to 10000 nM | 1000 to 10000 nM | O=C1CN(c2ncc(OCc3c(Cl)cccc3C(F)(F)F)cn2)CC(CO)N1 (stereo not drawn) | A′ (A′ = ≥10X) | A′ (A′ = ≥10X)
1000 to 10000 nM | 1000 to 10000 nM | NC(=O)C1CN(c2ncc(OCc3c(Cl)cccc3C(F)(F)F)cn2)CCO1 (stereo not drawn) | A′ (A′ = ≥10X) | A′ (A′ = ≥10X)
< 1000 nM | < 1000 nM | NC(=O)N1CCC(c2ncc(OCc3c(Cl)cccc3C(F)(F)F)cn2)CC1 | A′ (A′ = ≥10X) | A′ (A′ = ≥10X)
1000 to 10000 nM | 1000 to 10000 nM | FC(F)(F)c1cccc(Cl)c1COc1cnc(N2CCCC3(CCNC3)C2)nc1 (stereo not drawn) | B′ (B′ = ≥5X to <10X) | B′ (B′ = ≥5X to <10X)
< 1000 nM | < 1000 nM | Cc1cccc(C(F)(F)F)c1COc1cnc(N2CCN3C(=O)COCC3C2)nc1 (stereo not drawn) | A′ (A′ = ≥10X) | A′ (A′ = ≥10X)
